# Where two headings read alike, the source gives them in different places.
# Assays:
# [1] = test system: SAM in HCT116 human colon carcinoma cell line engineered to delete the MTAP gene (MTAP −/−); assay: Cellular assay of target engagement (SAM) by LC-MS/MS; assay type: cell-based; details: IC50 score, read-out: Cell 72 h SAM Inhibition (MTAP −/−; Example 276)
# Method: Measurement of MAT2A activity in cells was made by direct quantitation of the abundance of the product of its enzymatic activity, SAM. Cancer cells were treated with candidate MAT2A inhibitors for a suitable incubation period, and the cells were then lysed using a reagent which quenched any further enzyme activity. Soluble metabolites including SAM were collected and SAM itself was directly measured from the lysate using quantitative LC-MS/MS.
# A typical assay was performed using an HCT116 human colon carcinoma cell line which was genetically engineered to delete the MTAP gene (commercially available from Horizon Discovery). This cell line was utilized because it was determined that loss of the MTAP gene predicts sensitivity to MAT2A inhibitors. Cells were plated in 96-well dishes at appropriate cell density. Following 24 hours, cells were then treated with the candidate MAT2A inhibitor. Prior to addition to cells, the compound was first serially diluted in 100% DMSO, typically as a 3-fold serial dilution starting at 500× top dose with 10 dose points including DMSO only control. Compound was then transferred to a working stock plate in cell culture media by adding 5 μl of compound in DMSO to 495 μl of cell culture media. This working stock was then added to cells via a further 5-fold dilution, by adding 25 μl of working stock to 100 μl of cells in culture media. Following compound addition, cells were incubated at 37° C./5% CO2 for 72 hrs.
# To quantitate SAM levels following compound treatment, cells were gently washed once in Ammonium Carbonate buffer (75 mM at pH 7.4), placed on dry ice, and lysed with metabolite extraction buffer (80% cold methanol and 20% water (v/v) with acetic acid at 1 M final concentration with 200 ng/mL deuterated d3-SAM as internal control). Following centrifugation at 4° C. at 3,200 rpm for 30 minutes, the supernatant was collected and stored at −80° C. until analysis by Liquid Chromatography with tandem Mass Spectrometry (LC-MS/MS). LC-MS/MS analysis was performed using an API6500 Mass Spectrometer (Sciex, Framingham, Mass., USA) operating in positive ion spray mode and equipped with a Waters UPLC Acquity (Waters, Milford, Mass., USA) BEH Amide column. Multiple Reaction Monitoring data was acquired for SAM and the d3-SAM standard, using a mass transition pair at m/z 399.2→250.1 and 402.2→250.1, respectively. In a typical LC-MS/MS analysis, the initial flow rate was 0.5 ml/min of 25% mobile phase A (acetonitrile and water at 5:95 (v/v) with 1% formic acid and 10 mM ammonium acetate) and 75% mobile phase B (acetonitrile and water at 95:5 (v/v) with 1% formic acid and 10 mM ammonium acetate), 0.2-0.5 minutes with 75%-35% mobile phase B, 25%-65% mobile phase A, at 0.5 min 65% mobile phase A and 35% mobile phase B, 1.0-1.1 minutes with 35%-75% mobile phase B, 65%-25% mobile phase A, at 1.1 min 25% mobile phase A and 75% mobile phase B with a total run time of 1.5 minutes.
# [2] = biological target: T1, MAT2A homodimer (Homo sapiens, UniProt P31153); assay: Biochemical assay: inhibition of MAT2A (phosphate release, PiColorLock Gold); details: MAT2A IC50 score; read-out: Enzyme Inhibition (Example 275)
# T1 construct: inferred from Ni sepharose purification and imidazole elution; made in house; host or cells: Sf9 insect cells, recombinant baculovirus (Bac to Bac, pFASTBAC1)
# How it was run: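 Phosphate formed alongside SAM was read with PiColorLock Gold and quantified against a potassium phosphate standard curve. Reactions ran 60 min at 25 °C after adding a substrate mix of 500 μM ATP and 400 μM L-methionine (mix concentrations). Compound had first been preincubated 60 min with recombinant Sf9-derived MAT2A homodimer ([…]) in pH 8.0 Tris buffer containing MgCl2, KCl, EDTA and BSA.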
# [3] = test system: HCT116 MTAP−/−; assay: Inhibition of cellular proliferation (Cell Titer Glo), HCT116 MTAP−/−; assay type: cell-based, human; details: 4 days, IC50 score, read-out: 4 Day Relative Growth Inhibition (MTAP −/−; Example 277)
# Method: (§1) Test compound impact on cancer cell growth was assessed by treating cancer cells with compound for 4 days and then measuring proliferation using an ATP-based cell proliferation readout (Cell Titer Glo, Promega Corporation).
# (§2) In a typical assay an isogenic pair of HCT116 human colon carcinoma cell lines which vary only in MTAP deletion status (HCT116 MTAP+/+ and HCT116 MTAP−/−) were plated in 96-well dishes at appropriate cell density. Following 24 hours, cells were then treated with the candidate MAT2A inhibitor. Prior to addition to cells, the compound was first serially diluted in 100% DMSO, typically as a 3-fold serial dilution starting at 500× top dose with 10 dose points including DMSO only control. Compound was then transferred to a working stock plate in cell culture media by adding 5 μl of compound in DMSO to 495 μl of cell culture media. This working stock was then added to cells via a further 5-fold dilution, by adding 25 μl of working stock to 100 μl of cells in culture media. Following compound addition, cells were incubated at 37° C./5% C02 for 4 days.
# (§3) To measure inhibition of cellular proliferation, cells were allowed to equilibrate to room temperature for 30 minutes, and were then treated with 125 μl of Cell Titer Glo reagent. The plate was then covered with aluminum foil and shaken for 15 minutes to ensure complete mixing and full cell lysis. Luminescent signal was then measured using a plate-based luminometer Veritas version 1.9.2 using ATP standard curve to confirm assay reproducibility from run to run. This luminescence measure was converted to a proliferation index by subtracting from each data point the ATP luminescence signal measured from a bank (no cells) well and dividing by the ATP luminescence signal measured in 0.2% DMSO control well adjusted for signal in blank well. Compound activity was then represented as a percentage change in proliferation relative to a within-plate DMSO control against log10 of compound concentration in molar (M) units.
# [4] = test system: HCT116 MTAP+/+; assay: Inhibition of cellular proliferation (Cell Titer Glo), HCT116 MTAP+/+; assay type: cell-based, human; details: 4 days, IC50 score, read-out: 4 Day Relative Growth Inhibition (MTAP +/+; Example 277)
# Method: as §1, §2, §3
# T1 sequence (P31153 whole entry): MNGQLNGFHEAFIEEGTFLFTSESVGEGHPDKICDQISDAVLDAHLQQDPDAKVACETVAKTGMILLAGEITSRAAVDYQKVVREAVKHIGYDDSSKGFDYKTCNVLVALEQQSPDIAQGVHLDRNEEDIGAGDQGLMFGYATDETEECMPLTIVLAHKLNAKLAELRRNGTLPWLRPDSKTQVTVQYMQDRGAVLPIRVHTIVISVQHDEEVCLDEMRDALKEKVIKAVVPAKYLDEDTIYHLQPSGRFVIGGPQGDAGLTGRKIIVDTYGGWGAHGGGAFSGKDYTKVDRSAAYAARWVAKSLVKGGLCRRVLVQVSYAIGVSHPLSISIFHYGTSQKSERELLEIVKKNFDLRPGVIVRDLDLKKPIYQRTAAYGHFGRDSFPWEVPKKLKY
Structure (SMILES),"IC50 ([1]; Homo sapiens, HCT-116, 72 h) [nM]",IC50 [2] [nM],"IC50 ([3]; Homo sapiens, HCT-116, 96 h) [nM]","IC50 ([4]; Homo sapiens, HCT-116, 96 h) [nM]",IC50 ([1]; 72 h) [nM],IC50 [3] [nM],IC50 [4] [nM]
Cn1cc2cc(-n3cc4ccc(OCC(F)(F)F)nc4c(-c4ccc(OC(F)F)nc4)c3=O)ccc2n1 [Example 110-A],< 100,< 100,< 100,100 to 10000,,,
CCOc1ccc2cn(-c3ccc4ncn(C)c4c3)c(=O)c(-c3ccc(NC)nc3)c2n1 [Example 111-A],< 100,< 100,< 100,100 to 10000,,,
Cn1cnc2ccc(-n3cc4ccc(OCC(F)(F)F)nc4c(-c4ccc(OC(F)(F)F)nc4)c3=O)cc21 [Example 112-A],< 100,< 100,< 100,100 to 10000,,,
Cn1cc2cc(-n3cc4ccc(OCC(F)(F)F)nc4c(-c4ccc(C5CC5)nc4)c3=O)ccc2n1 [Example 113-A],< 100,< 100,< 100,100 to 10000,,,
CCOc1ccc2cn(-c3ccc(OC)cc3)c(=O)c(-c3ccc(C)nc3)c2n1 [Example 114-A],< 100,< 100,< 100,100 to 10000,,,
[2H]C([2H])([2H])Oc1ccc(-c2c(=O)n(-c3ccc4nn(C)cc4c3)cc3ccc(OCC(F)F)nc23)cc1 [Example 115-A],< 100,< 100,< 100,100 to 10000,,,
[2H]C([2H])([2H])Oc1ccc(-c2c(=O)n(-c3ccc4nn(C)cc4c3)cc3ccc(OCC(F)(F)F)nc23)cc1 [Example 116-A],< 100,< 100,< 100,> 10000,,,
[2H]C([2H])([2H])Oc1ccc(-c2c(=O)n(-c3ccc4nn(C)cc4c3)cc3ccc(OCC)nc23)cc1 [Example 117-A],< 100,< 100,< 100,100 to 10000,,,
Cn1cc2cc(-n3cc4ccc(OCC(F)(F)F)nc4c(-c4ccc(C(F)F)nc4)c3=O)ccc2n1 [Example 118-A],< 100,< 100,< 100,100 to 10000,,,
CCOc1ccc2cn(-c3ccc4nn(C)cc4c3)c(=O)c(-c3cnc(C(F)(F)F)nc3)c2n1 [Example 119-A],< 100,< 100,< 100,100 to 10000,,,
Cn1cnc2ccc(-n3cc4ccc(OCC(F)(F)F)nc4c(-c4ccc(C5CC5)nc4)c3=O)cc21 [Example 120-A],< 100,< 100,< 100,100 to 10000,,,
CCOc1ccc2cn(-c3ccc(OC)cc3)c(=O)c(-c3ccc(OC(F)(F)F)nc3)c2n1 [Example 121-A],< 100,< 100,100 to 10000,100 to 10000,,,
CCOc1cc(C)c2cn(-c3ccc4nn(C)cc4c3)c(=O)c(-c3ccc(Cl)cc3)c2n1 [Example 122-A],< 100,< 100,< 100,100 to 10000,,,
CCOc1ccc2cn(-c3ccc4nn(C)cc4c3)c(=O)c(-c3ccc(OC(F)(F)F)nc3)c2n1 [Example 133-A],< 100,< 100,< 100,,,,
"CCOc1ncc2cn(-c3ccc4ncccc4c3)c(=O)c(-c3ccc(OC(F)F)cc3)c2n1 [Example 271, 8-(4-(difluoromethoxy)phenyl)-2-ethoxy-6-(quinolin-6-yl)pyrido[4,3-d]pyrimidin-7(6H)-one]",,< 100,,,,,
"O=c1c(-c2ccc(OC(F)F)cc2)c2nc(OC3CC3)ncc2cn1-c1ccc2ncccc2c1 [Example 273, 2-cyclopropoxy-8-(4-(difluoromethoxy)phenyl)-6-(quinolin-6-yl)pyrido[4,3-d]pyrimidin-7(6H)-one]",,< 100,,,,,
"O=c1c(-c2ccc(OC(F)F)cc2)c2nc(SCC(F)(F)F)ncc2cn1-c1ccc2ncccc2c1 [Example 274, 8-(4-(difluoromethoxy)phenyl)-6-(quinolin-6-yl)-2-(2,2,2-trifluoroethylthio)pyrido[4,3-d]pyrimidin-7(6H)-one]",,< 100,,,,,

# Second part, the compound after the results:
"IC50 ([1]; Homo sapiens, HCT-116, 72 h) [nM]",IC50 [2] [nM],"IC50 ([3]; Homo sapiens, HCT-116, 96 h) [nM]","IC50 ([4]; Homo sapiens, HCT-116, 96 h) [nM]",IC50 ([1]; 72 h) [nM],IC50 [3] [nM],IC50 [4] [nM],Structure (SMILES)
< 100,< 100,< 100,> 10000,,,,CC(C)(O)Cn1cc2cc(-n3cc4cnc(NCC(F)(F)F)nc4c(-c4ccc(Cl)cc4)c3=O)ccc2n1 [Example 101-A]
< 100,< 100,< 100,100 to 10000,,,,Cn1cc2cc(-n3cc4cnc(NCC(F)F)nc4c(-c4ccc(Cl)cc4)c3=O)ccc2n1 [Example 102-A]
< 100,< 100,< 100,> 10000,,,,Cn1cc2cc(-n3cc4cnc(NCC(F)(F)F)nc4c(-c4ccc(Br)cc4)c3=O)ccc2n1 [Example 103-A]
< 100,< 100,100 to 10000,100 to 10000,,,,CCOc1ccc2cn(-c3ccc4nn(C(C)C)cc4c3)c(=O)c(-c3ccc(Cl)cc3)c2n1 [Example 104-A]
< 100,< 100,< 100,100 to 10000,,,,CCOc1ccc2cn(-c3ccc4nn(C)c(C)c4c3)c(=O)c(-c3ccc(Cl)cc3)c2n1 [Example 105-A]
< 100,< 100,100 to 10000,> 10000,,,,CCOc1ccc2cn(-c3ccc4nn(C)nc4c3)c(=O)c(-c3ccc(Cl)cc3)c2n1 [Example 106-A]
,< 100,,,< 100,< 100,100 to 10000,CCOc1ccc2cn(-c3ccc(=O)n(CCS(C)(=O)=O)c3)c(=O)c(-c3ccc(OC(F)F)cc3)c2n1 [Example 107-A]
< 100,< 100,< 100,100 to 10000,,,,CCOc1ccc2cn(-c3ccc4nn(CCS(C)(=O)=O)cc4c3)c(=O)c(-c3ccc(OC(F)F)cc3)c2n1 [Example 108-A]
< 100,< 100,< 100,100 to 10000,,,,CCOc1ccc2cn(-c3ccc4nn(C)cc4c3)c(=O)c(-c3ccc(Br)cc3)c2n1 [Example 109-A]

# — patent US11524960B2, “Heterobicyclic inhibitors of MAT2A and methods of use for treating cancer” (AGIOS PHARMACEUTICALS, INC., priority 2018, dated 2022)
